This note sets out measurements from patent publication US20250011316A1, “PEROXIREDOXIN 3 INHIBITORS AND METHODS OF USE FOR TREATING CANCER” (Wake Forest University Health Sciences, priority 2022, published 2025).

In brackets after ≈: the same amount, converted by molar mass.

A word on the EC50: it is the concentration needed to bring the measured effect to its halfway point. Low readings indicate an effect from little substance, high ones a need for much substance. What is called solubility is the dissolved amount per volume that the medium holds.

For data set [1], the system named is human SK—OV-3 ovarian cancer cells. Description: Cellular Activity Assay (cytotoxicity, crystal violet). It is filed as cell-based. To be noted: Homo sapiens; SK—OV-3 cells, treated for 48 hr, 0.1-100 μM, crystal violet absorbance at 540 nm. An excerpt: (§1) To test the activity of compounds, two complimentary assays were used as described below. The Biochemical PRX3 Inhibition Assay tests the ability of each compound to crosslink PRX3 in a simple, in vitro system. In the Cellular Activity Assay, we are testing the ability of compounds to kill SK—OV-3 ovarian cancer cells.
The Cellular Activity Assay measures the EC50 of each compound in human SK—OV-3 ovarian cancer cells TS to be taken into the cell, transported to the mitochondria, and crosslink PRX3.
The cytotoxicity of compounds was measured as described in Nelson et al. (2021) Antioxidants (Basel) 10, 150; Cunniff et al. (2015) PloS one 10, e0127310; and Newick et al. (2012) PloS one 7, e39404. SK—OV-3 is an adherent, epithelial, adenocarcinoma cell line obtained from ATCC (ref #: HTB-77). SK—OV-3 cells are resistant to the commonly used chemotherapeutics, cis-platinum and doxorubicin. For this […], SK—OV-3 cells were plated in a 96-well plate. After 24 h recovery, the cells were treated for 48 hr with multiple concentrations of each compound ranging from 0.1-100 μM.
Cells were washed with PBS to remove dead cells and the remaining live cells were fixed with 3.0% formaldehyde and stained with 0.1% crystal violet. The amount of crystal violet was determined by reading the absorbance at 540 nm (crystal violet dye dissolved in 100% methanol) using a plate reader. The signal for crystal violet dye is proportional to the biomass of remaining live cells. GraphPad Prism9 software was used to calculate the effective inhibitory concentration (EC50) of test compounds. Results for each compound, are normalized to the amount of cells in control wells treated with the equivalent concentration of DMSO (negative control). TS or Compound 4 were included in each set of assays as a positive control.

A further data set addresses T1, purified human PRX3 (Homo sapiens, UniProt P30048).
T1 construct: made in house
T1 sequence (P30048 62-256): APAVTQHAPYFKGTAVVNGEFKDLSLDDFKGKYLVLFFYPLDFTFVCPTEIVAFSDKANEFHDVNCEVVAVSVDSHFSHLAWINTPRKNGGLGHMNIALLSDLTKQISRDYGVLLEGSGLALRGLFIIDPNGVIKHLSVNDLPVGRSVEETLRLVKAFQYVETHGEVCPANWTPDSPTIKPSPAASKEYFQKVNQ
Put plainly: Biochemical PRX3 Inhibition Assay (non-reducible crosslink by SDS PAGE + single adduct by MALDI-TOF MS). The settings on record: 100 μM PRX3 with TRX2/thioredoxin reductase/NADPH system and hydrogen peroxide, 1-2 hr at 37° C.
Excerpt: The compounds described herein generally react with two essential cysteine residues in the mitochondrial peroxidase PRX3, leading to the formation of a non-reducible, covalent crosslink of two PRX3 monomers. This crosslink inactivates PRX3. Increased PRX3 crosslink is associated with mitochondrial stress, increased cell death in cell models of malignant mesothelioma and is associated with decreased tumor volume in a mouse model. Cunniff et al. (2015) PloS one 10, e0127310.
as §1
This assay tests the ability of each compound to form a covalent adduct with PRX3. The assay is performed as described in Nelson et al. (2021) Antioxidants (Basel) 10, 150; and Cunniff et al. (2015) PloS one 10, e0127310, and follows the appearance of non-reducible PRX3 crosslinks by SDS PAGE gel electrophoresis and follows the appearance of single PRX3 adducts by mass spectrometry. For this assay, purified human PRX3, hydrogen peroxide (the PRX3 substrate) and all the components required to enable PRX3 to catalytically cycle (thioredoxin-thioredoxin reductase-NAPDH system) are included (details below).
The biochemical PRX3 Inhibition assay contains 100 μM PRX3, 50 μM human TRX2, 0.5 μM mouse thioredoxin reductase, and a NADPH regenerating system composed of 3.2 mM glucose 6-phosphate, 3.2 U/ml glucose 6-phosphate dehydrogenase and 0.4 mM NADPH. Samples are incubated for 1-2 hr at 37° C. with either 0.2 mM TS (positive control), compounds or an equivalent volume of DMSO (negative control). During this incubation, hydrogen peroxide is added to induce turnover of PRX3. Reactions are stopped by the addition of a buffer containing 100 mM dithiothreitol (to break disulfide bonds) and SDS (detergent to denature proteins). NADPH, Glucose 6-Phosphate, and glucose 6-phosphate dehydrogenase were purchased from Sigma Aldrich. PRX3, thioredoxin, and thioredoxin reductase were all purified to >98% purity in the Lowther laboratory according to protocols referenced in Nelson et al. (2021) Antioxidants (Basel) 10, 150; and Cunniff et al. (2015) PloS one 10, e0127310.
To measure the amount of PRX3 crosslink, proteins in the reaction were separated by SDS-polyacrylamide gel electrophoresis and stained for total protein using GelCode Blue (Life Technologies). The amount of unmodified PRX3 and TS-PRX3 crosslink was measured by densiometric analysis of the signal for the PRX3 band running at the MW of a PRX3 crosslink (˜46 kDa) compared to the PRX3 signal at the MW of the un-modified PRX3 (−23 kD).
To measure covalent adduct formation on a single PRX3 monomer, each reaction was exchanged into a mass spectrometry compatible buffer containing 40 mM ammonium citrate, pH 8.3 made in HPLC water. Sample was mixed 1:1 with a matrix solution containing 30 mg/mL sinapinic acid in 70% (vol/vol) acetonitrile, 0.2% formic acid and spotted to onto the sample plate. PRX3 mass was measured by MALDI-TOF MS analysis on a Bruker Daltonics MALDI-TOF MS spectrometer. Spectra were analyzed in FLEXAnalysis Software. The intensity of the reduced PRX3 peak (SH) and intensity of the analog adduct peak was determined and corrected for background signal at the adduct peak in the DMSO control. The fraction of single analog adduct in the monomer peak was determined by dividing the intensity of the adduct peak by the summed intensity of the SH and adduct peaks.

A short description of the next data set: Solubility Assay (HPLC). It is filed as physicochemical. To be noted: HEPES/NaCl buffer, aqueous with cosolvent or surfactant or cyclodextrin, kinetic from dmso stock; 20 mM HEPES, 100 mM NaCl, pH 7.5, 18-24 hours at ambient temperature; read-out: Solubility. On the procedure:
A 20 mM stock solution was made for each compound in DMSO. To measure solubility, 0.03-0.05 mL of the stock was added to 0.27 mL 20 mM HEPES, 100 mM NaCl, pH 7.5. The solution was mixed and rotated 18-24 hours at ambient temperature. The next day, solutions were centrifuged for 10 min at 20,000×g at […] to remove insoluble, solid material. Next, 100 μL of the supernatant containing the soluble compound was added to 900 μL DMSO and High Performance Liquid Chromatography was performed as described in Table 1 and either HIPLC gradient 1 (Table 2) or HIPLC gradient 2 (Table 3). For each analog, a 200 μM standard and a 20 μM standard were prepared and run in parallel (standards were dissolved completely in […]). The amount ofLcompound in the experimental sample was calculated by comparing the area under the curve for compound peak to the area for the closest standard and correcting for dilution.

`C=C(NC(=O)c1csc(-c2ccc(CNC(=O)COCCOC)cc2)n1)C(=O)NC(=C)C(=O)OC` [Compound 35, Methyl 2-(2-(2-(4-((2-(2-methoxyethoxy)acetamido)methyl)phenyl)thiazole-4-carboxamido)acrylamido)acrylate]: the EC50 in data set [1] was 1 to 10 µM. The “PRX3 Inhibition (Crosslink + Mono-adduct)” value (shortened to “PRX3 Inhibition”) on purified human PRX3 is “+++ (>90%)”. Further, the solubility in the data set “Solubility Assay (HPLC)” lay within 100 to 1000 µM (≈ 50.3 to 503 µg/mL).

Take `C=C(NC(=O)c1csc(-c2ccc(CNC(=O)C3CCOCC3)cc2)n1)C(=O)NC(=C)C(=O)OC` [Compound 36, Methyl 2-(2-(2-(4-((tetrahydro-2H-pyran-4-carboxamido)methyl)phenyl)thiazole-4-carboxamido)acrylamido)acrylate]: the EC50 in data set [1] was 1 to 10 µM. Besides, the “PRX3 Inhibition” value at purified human PRX3 is “+++ (>90%)”. Further, the solubility in the data set “Solubility Assay (HPLC)” is below 100 µM.

Take `C=C(NC(=O)c1csc(-c2ccc(CNC(=O)CCCCCCl)cc2)n1)C(=O)NC(=C)C(=O)OC` [Compound 37, Methyl 2-(2-(2-(4-((6-chlorohexanamido)methyl)phenyl)thiazole-4-carboxamido)acrylamido)acrylate]: the EC50 in data set [1] is 1 to 10 µM. The “PRX3 Inhibition” value at purified human PRX3 is listed as “+ (5-50%)”. Further, in “Solubility Assay (HPLC)”, the solubility is below 100 µM.

Compound `C=C(NC(=O)c1csc(-c2ccc(CNC(=O)CCNC(=O)OC(C)(C)C)cc2)n1)C(=O)NC(=C)C(=O)OC` [Compound 38, Methyl 2-(2-(2-(4-((3-((tert-butoxycarbonyl)amino)propanamido)methyl)phenyl)thiazole-4-carboxamido)acrylamido)acrylate] came in with an EC50 in data set [1] of 1 to 10 µM. Further, at purified human PRX3, the “PRX3 Inhibition” value is on record as “++ (50-90%)”. In addition, the solubility in “Solubility Assay (HPLC)” was below 100 µM.

The compound `C=C(NC(=O)c1csc(-c2ccc(CNC(=O)CCCCCN=[N+]=[N-])cc2)n1)C(=O)NC(=C)C(=O)OC` [Compound 39, Methyl 2-(2-(2-(4-((6-azidohexanamido)methyl)phenyl)thiazole-4-carboxamido)acrylamido)acrylate] displayed a concentration giving a half-maximal response (EC50) in data set [1] of 1 to 10 µM. Further, at purified human PRX3, the “PRX3 Inhibition” value is on record as “++ (50-90%)”. For the same compound, the solubility in the data set “Solubility Assay (HPLC)” is below 100 µM.

In turn, `C=C(NC(=O)c1csc(N2CCC(CNC(=O)CCCCCCl)CC2)n1)C(=O)NC(=C)C(=O)OC` [Compound 40, Methyl 2-(2-(2-(4-((6-chlorohexanamido)methyl)piperidin-1-yl)thiazole-4-carboxamido)acrylamido)acrylate] showed an EC50 in data set [1] of 10 to 25 µM. On purified human PRX3, the “PRX3 Inhibition” value is given as “+++ (>90%)”. Besides, in “Solubility Assay (HPLC)”, the solubility lay in the range of 100 to 1000 µM (≈ 52.6 to 526 µg/mL).

Consider `C=C(NC(=O)c1csc(N2CCC(CNC(=O)COCCOC)CC2)n1)C(=O)NC(=C)C(=O)OC` [Compound 41, Methyl 2-(2-(2-(4-((2-(2-methoxyethoxy)acetamido)methyl)piperidin-1-yl)thiazole-4-carboxamido)acrylamido)acrylate], for which the EC50 in data set [1] fell in the range of 10 to 25 µM. In addition, at purified human PRX3, the “PRX3 Inhibition” value is recorded as “+++ (>90%)”. Moreover, the solubility in the data set “Solubility Assay (HPLC)” is above 1000 µM.

For `C=C(NC(=O)c1csc(-c2ccc(COC(=O)NCCCOC)cc2)n1)C(=O)NC(=C)C(=O)OC` [Compound 42, Methyl 2-(2-(2-(4-((((3-methoxypropyl)carbamoyl)oxy)methyl)phenyl)thiazole-4-carboxamido)acrylamido)acrylate], in data set [1], the EC50 fell in the range of 1 to 10 µM. Moreover, the “PRX3 Inhibition” value on purified human PRX3 is “+++ (>90%)”. Further, the solubility in the data set “Solubility Assay (HPLC)” is below 100 µM.

In data set [1], `C=C(NC(=O)c1csc(-c2cccc(CNC(=O)OC(C)(C)C)c2)n1)C(=O)NC(=C)C(=O)OC` [Compound 43, Methyl 2-(2-(2-(3-(((tert-butoxycarbonyl)amino)methyl)phenyl)thiazole-4-carboxamido)acrylamido)acrylate] returned an EC50 of 1 to 10 µM. Besides, the “PRX3 Inhibition” value at purified human PRX3 is “+++ (>90%)”. In addition, the solubility in the data set “Solubility Assay (HPLC)” was below 100 µM.

In the case of `C=C(NC(=O)c1csc(N2CCC(NC(=O)CC3CCOCC3)CC2)n1)C(=O)NC(=C)C(=O)OC` [Compound 51, Methyl 2-(2-(2-(4-(2-(tetrahydro-2H-pyran-4-yl)acetamido)piperidin-1-yl)thiazole-4-carboxamido)acrylamido)acrylate], at purified human PRX3, the “PRX3 Inhibition” value is on record as “+++ (>90%)”. For the same compound, the solubility in the data set “Solubility Assay (HPLC)” was below 100 µM.

Turning to `C=C(NC(=O)c1csc(N2CCC(NC(=O)C3COCCO3)CC2)n1)C(=O)NC(=C)C(=O)OC` (centres unmarked) [Compound 58, Methyl 2-(2-(2-(4-(1,4-dioxane-2-carboxamido)piperidin-1-yl)thiazole-4-carboxamido)acrylamido)acrylate], at purified human PRX3, the “PRX3 Inhibition” value is listed as “+++ (>90%)”. The solubility in the data set “Solubility Assay (HPLC)” lay in the range of 100 to 1000 µM (≈ 49.4 to 494 µg/mL).

As for `C=C(NC(=O)c1csc(N2CCN(C(=O)C3CCOCC3)CC2)n1)C(=O)NC(=C)C(=O)OC` [Compound 59, Methyl 2-(2-(2-(4-(tetrahydro-2H-pyran-4-carbonyl)piperazin-1-yl)thiazole-4-carboxamido)acrylamido)acrylate], at purified human PRX3, the “PRX3 Inhibition” value is on record as “+++ (>90%)”. Also, the solubility in “Solubility Assay (HPLC)” lay in the range of 100 to 1000 µM (≈ 47.8 to 478 µg/mL).

Regarding `C=C(NC(=O)c1csc(N2CCN(C(=O)OC(C)(C)C)[C@H](C)C2)n1)C(=O)NC(=C)C(=O)OC` [Compound 60, Tert-butyl (R)-4-(4-((3-((3-methoxy-3-oxoprop-1-en-2-yl)amino)-3-oxoprop-1-en-2-yl)carbamoyl)thiazol-2-yl)-2-methylpiperazine-1-carboxylate], the “PRX3 Inhibition” value at purified human PRX3 is reported as “+++ (>90%)”. Also, the solubility in the data set “Solubility Assay (HPLC)” was below 100 µM.
